The source of these data is the AptaBench aptamer set (doi:10.1093/nar/gkaf219).

A word on the Kd: it is the free concentration of one partner at which half of the binding sites on the other are occupied at equilibrium, for simple one-to-one binding. A lower Kd goes with tighter binding.

Structures are written as SMILES.

What all share (settings): 10 mM Tris-HCl, pH 7.4
Experiment [1] relates to DNA aptamer or structured DNA CTTACGACATCTGCGTGTGGCCGGTGTGAGGGAGGGATGTCGTAAG
Experiment [2] has as its system DNA aptamer or structured DNA CTTACGACCGGTGGGGAGGCCGGAGTTGGGAACGGGGGGTCGTAAG
The test system of experiment [3] is DNA aptamer or structured DNA GGGACGACAGAATGGCAGCATTGGTGAGTTGTTTGCCTGTCGTCCC
In experiment [4] the test system is DNA aptamer or structured DNA GGGACGACAGGGATTCGGTCTTGGTACATAGGGGCCTCGTCTGTCGTCCC
The test system of experiment [5] is DNA aptamer or structured DNA GGGACGACAGGGATTCGGTTCTCGATAAGTAGTGCCTCGTACGTCGTCCC
Experiment [6] deals with DNA aptamer or structured DNA GGGACGACATCGTAGGGGCACACGCTTAACGGGCTGATGTCGTCCC
For experiment [7], the system named is DNA aptamer or structured DNA GGGACGACCAGAATGGAAGCATTGGTTGCCGCAGGGTGCCGCAGTCGTCCC
The subject of experiment [8] is DNA aptamer or structured DNA GGGACGACCGGACTTGGGTGGGTGCTGGGGCTTGGGCGGTCGTCCC
Experiment [9] relates to DNA aptamer or structured DNA GGGACGACGCCGGCTTCTAGGGGGGGTGTGGGTGGCGAGTCGTCCC
Experiment [10] deals with DNA aptamer or structured DNA GGGACGACGCGTACCTGTGGTAGTCGTACGTCGTTCAAGTCGTCCC
The subject of experiment [11] is DNA aptamer or structured DNA GGGACGACGGAGGTTTAGGGTTTAGGTAGTGGGTTGAAGTCGTCCC
Experiment [12] concerns DNA aptamer or structured DNA GGGACGACGGGGATTCGGTTCGTCATTTGGCAGTGCCTCGTACGTCGTCCC
Experiment [13] has as its system DNA aptamer or structured DNA GGGACGACGGGGATTCGGTTCGTCATTTGGCAGTGCCTCGTCTGTCGTCCC
Experiment [14] deals with DNA aptamer or structured DNA GGGACGACTAGCGCATGCGTTGTTCGAGGATACGAGTAGTCGTCCC
In experiment [15] the test system is DNA aptamer or structured DNA GGGACGACTAGTGCCTTCGCGTTGTACGGGAATCCGGTTCTGTCGTCCC
Experiment [16] has as its system DNA aptamer or structured DNA GGGACGACTAGTGCCTTCGCGTTGTTCGGGAATCCGGTTCTGTCGTCCC
In experiment [17] the test system is DNA aptamer or structured DNA TTCAAATCTGGTGCCCTTTCGCAGTCGGTTGGTAATGAGACCACTTTAGAGTCTAGATTTGAA
Experiment [18] has as its system DNA aptamer or structured DNA GGGACGACCCGTAGGGGTACACGCTCTATGGGGGCTGGGTCGTCCC
Experiment [19] relates to DNA aptamer or structured DNA GGGACGACGCGTACCATGGGTAGTTGCACGTCGTCCAAGTCGTCCC
Experiment [20] concerns DNA aptamer or structured DNA GGGACGACGGCACGAGGTAATTCGTTGGTTGCACTGCGCTGGGAGGCAGTCGTCCC
For experiment [21], the system named is DNA aptamer or structured DNA GGGACGACGGCACGAGGTTAATCGTTGGTTGCACTGCGCTGGGAGGCAGTCGTCCC
The subject of experiment [22] is DNA aptamer or structured DNA GGGACGACGGCACGGGGTTATTCGTTGGTTGCACTGCGCTGGGAGGCAGTCGTCCC
In experiment [23] the test system is DNA aptamer or structured DNA GGGACGACTAGTGCCTTCGCGTTGTTCGGGAATCCGGTTCCGTCGTCCC
Experiment [24] relates to DNA aptamer or structured DNA GGGACGACAAGTCAGGCCTGTCTCAGCGAGTTCGACATGTCGTCCC
Experiment [25] deals with DNA aptamer or structured DNA GGGACGACATGCGTCGAAAAGACCCCTGAGGGCAGCTGGTCGTCCC
Experiment [26] has as its system DNA aptamer or structured DNA GGGACGACCCGTAGGGGTACACGCTCTATAGGGGCTGGGTCGTCCC
Experiment [27] has as its system DNA aptamer or structured DNA GGGACGACGCGCATGTGGTGTCGGTCAGATGGGATGAAGTCGTCCC
The test system of experiment [28] is DNA aptamer or structured DNA GGGACGACGCGTACCTGTGGTAGTTGTACGTCGTTCAAGTCGTCCC
Experiment [29] has as its system DNA aptamer or structured DNA GGGACGACGGGGGGAGTTTGTTTGTGTGGGAGGGTCCAGTCGTCCC
Experiment [30] has as its system DNA aptamer or structured DNA GGGACGACGCAGCAGTCCATCTCTCAGCGAGTTCGTCAGTCGTCCC
For binding call in this document: call rule not given here.

For the compound `CCN(CC)CCOC(=O)c1ccc(N)cc1`, the binding call in experiment [1] is “binds”; in experiment [2] it was “no binding”; in [3] it was “no binding”; in experiment [4] it was “no binding”; in experiment [5] it was “no binding”; in [6] it was “no binding”. For the same compound, the binding call in [7], in experiment [8], in experiment [9], in experiment [10], in experiment [11] and in experiment [12] was “no binding” throughout. Also, the binding call is “no binding” in [13]; “no binding” in experiment [14]; “no binding” in [15]; “binds” in [16]; “no binding” in [17].

As to `CCN(CC)CC(=O)Nc1c(C)cccc1C`, the binding call in [2], in experiment [18], in [9], in experiment [19], in experiment [11] and in experiment [12] was “no binding” throughout. Besides, in [14], the binding call is given as “no binding”.

In the case of `CCC(=O)C(CC(C)N(C)C)(c1ccccc1)c1ccccc1` (stereo unspecified), the binding call in experiment [3] is given as “no binding”; in experiment [9] it was “binds”; in [11], “binds”; in experiment [16], “no binding”.

For `CN[C@@H](C)[C@@H](O)c1ccccc1`, the binding call in [1] was “binds”; in [2], “no binding”; in [3] it was “no binding”; in [20], “no binding”; in experiment [21], “no binding”; in experiment [22] it was “no binding”. Also, the binding call in experiment [16] is reported as “binds”.

For `CN1CC[C@]23c4c5ccc(O)c4O[C@H]2[C@@H](O)C=C[C@H]3[C@H]1C5`, the binding call in [2], in experiment [20], in experiment [21] and in [22] was “no binding” in each case. Further, the Kd in experiment [4] worked out at 1.1 µM; in [5], 13.3 µM; in experiment [12] it was 1.5 µM; in experiment [13], 9.3 µM; in experiment [15], 1.3 µM; in experiment [23], 19.5 µM.

In the case of `CNC(C)Cc1ccc2c(c1)OCO2` (stereo unspecified), the binding call in experiment [9] is reported as “no binding”; in experiment [11], “binds”; in experiment [20] it was “binds”; in [21] it was “binds”; in [22], “binds”; in experiment [16] it was “binds”.

As to `c1ccc([C@H]2CN3CCSC3=N2)cc1`, the binding call in experiment [24], in experiment [6], in experiment [25], in [26], in experiment [18] and in experiment [27] was “no binding” each time. Moreover, the binding call in [19], in experiment [28] and in experiment [29] was “no binding” throughout.

Take `COC(=O)C(c1ccccc1)C1CCCCN1` (stereo unspecified): the binding call in [16] and in experiment [17] was “no binding” each time.

Consider `CC(N)Cc1ccccc1` (stereo unspecified), for which the binding call in [3] is given as “no binding”; in [7], “no binding”; in experiment [11] it was “no binding”; in experiment [20], “binds”; in [21], “binds”; in [22], “binds”. The figures for the binding call in [16] and in experiment [17] were “binds” and “no binding”, respectively.

Regarding `CN[C@@H](C)Cc1ccccc1`, the binding call in experiment [1] was “binds”; in experiment [2], “no binding”; in experiment [24], “no binding”; in [3], “no binding”; in experiment [25] it was “no binding”; in [7] it was “no binding”. Also, the binding call in [26], in experiment [8], in experiment [30], in [9], in experiment [27] and in [19] was “no binding” in each case. In experiment [11], the binding call is on record as “no binding”. Moreover, the Kd in experiment [20] amounted to 6.9 µM; in experiment [21], 6.4 µM; in experiment [22], 5.3 µM; in [16], 5.1 µM; in experiment [17] it was 4.44 µM.

Take `CCCC(C(=O)c1ccc2c(c1)OCO2)N1CCCC1` (stereo unspecified): in experiment [21], the binding call is listed as “no binding”.

On to `OC[C@@H](O)[C@@H](O)[C@H](O)[C@H](O)CO`, for which the binding call in experiment [2], in experiment [25], in experiment [26], in experiment [18] and in [29] was “no binding” in each case.

As to `NCC(O)c1ccc(O)c(O)c1` (stereo unspecified), the binding call was “no binding” in [4]; “no binding” in experiment [5]; “binds” in experiment [20]; “binds” in experiment [21]; “no binding” in [22]; “no binding” in [12]. Further, the binding call in experiment [13] is “no binding”; in experiment [15], “binds”; in [23], “no binding”; in experiment [16], “no binding”; in experiment [17] it was “no binding”.

As to `CC(=O)Nc1ccc(O)cc1`, the binding call in [2] is reported as “no binding”; in experiment [25] it was “no binding”; in experiment [8], “no binding”; in experiment [30], “binds”; in experiment [19] it was “no binding”; in [10], “no binding”. For the same compound, the binding call in experiment [29] is given as “binds”.

For the compound `Cc1nnc2n1-c1ccc(Cl)cc1C(c1ccccc1)=NC2`, the binding call is “no binding” in experiment [6]; “no binding” in experiment [25]; “no binding” in experiment [26]; “binds” in experiment [27]; “no binding” in experiment [28]; “no binding” in [22]. Also, the binding call in experiment [14] is “no binding”.

`CC(C)[C@H](NC(=O)c1nn(Cc2ccc(F)cc2)c2ccccc12)C(N)=O`: the dissociation constant Kd in experiment [9] came to 4.69 µM; in experiment [11] it was 0.054 µM.
